Marks after values point to notes of the source that are not given here. Blank lines part the entries; values can stand above or below the molecule they belong to.
Columns and labels:
[1] = tested on: Enterococcus faecalis (ATCC 4083), Streptococcus intermedius (ATCC 31412), Fusobacterium nucleatum (ATCC 49256), Porphyromonas gingivalis (ATCC 33277); assay: MIC and MBC by E-test; format: cell-based
Experimental: Four common endodontic pathogens were selected for the study: Enterococcus faecalis (ATCC 4083), Streptococcus intermedius (ATCC 31412), Fusobacterium nucleatum (ATCC 49256), and Porphyromonas gingivalis (ATCC 33277). […] Then, each microorganism was cultured in their recommended broth as follow; brain heart infusion (BHI) broth for […], Todd Hewitt broth for S. intermedius, chopped meat for F. nucleatum, and tryptic soy broth supplemented with hemin and vitamin K for P. gingivalis. […] One-way analysis of variance (ANOVA), followed by the Tukey's HSD (with p<0.05) was used for the four microorganisms to compare: A) the MICs and MBCs among tested antibiotics, B) the difference between baseline CFUs and post-treatment CFUs for different antibiotics/scaffold formulations and, C) the changes in color among the groups.

[2] = Crown color change measurement (tooth discoloration, CIE L*a*b*); parameters: species or system human
Text: (§1) One hundred and twenty intact single rooted permanent human teeth were collected for the study. All teeth were autoclaved, then access cavities were prepeared and the canal instrumented to size 40/0.04, with saline irrigation. Teeth were autoclaved again to ensure absence of bacteria prior to bacterial inoculation. The root canals were then inoculated with the bacterial mixture, using syringe delivery, with the 30-gauge needle close to the working length. Access cavities were then sealed with a sterile sponge and Cavit (3M ESPE). All teeth were then incubated in the anaerobic chamber. The suspensions were replenished weekly for 3 weeks to allow for biofilm formation and maturation (14).
Crown color was measured as described previously (16). All color measurements were taken in a dark room inside the anaerobic chamber. The instrument was calibrated before the measurement in each group. • The mean baseline color measurements were taken prior to filling the root canal with the antibiotics (C0) and then at 1 week (C1), 2 weeks (C2), and 3 weeks (C3). The results were expressed in the CIE L*a*b* system (L* [black-white], a* [red-green] and b* [blue-yellow]). • Mean color change (ΔE) value was calculated using the following formula; […].
One-way analysis of variance (ANOVA), followed by the Tukey's HSD (with p<0.05) was used for the four microorganisms to compare: A) the MICs and MBCs among tested antibiotics, B) the difference between baseline CFUs and post-treatment CFUs for different antibiotics/scaffold formulations and, C) the changes in color among the groups.

[3] = tested on: polymicrobial biofilm of E. faecalis, S. intermedius, F. nucleatum and P. gingivalis in root canals; assay: Post-treatment CFUs in ex vivo root canals inoculated with bacterial mixture (3-week biofilm), dressed with antibiotics/hydrogel scaffolds; format: cell-based; details: for samples with bacterial growth: n=15 per group; for Log10 CFUs: 1 week dressing
Text: as §1

[4] = comparison among tested antibiotics, P<0.05

- Minimum Inhibitory Concentration (MIC) [1, 4]: significantly higher
Structure (SMILES): O=C(O)c1cn(C2CC2)c2cc(N3CCNCC3)c(F)cc2c1=O [Ciprofloxacin, ciprofloxacin]
- Minimum Bactericidal Concentration (MBC) [1, 4]: significantly higher

- mean color change (ΔE) ([2]; 1 mg/mL, one week post-treatment): 6.9±1.9
- mean color change (ΔE) ([2]; 1 mg/ml, 2 and 3 weeks post-treatment): 8.4±2.0
- tooth discoloration ([2]; greater than 1 mg/ml to about 10 mg/mL, after applying an inner bonding within the coronal endodontic access preparation): no detectable discoloration
Structure (SMILES): CN(C)c1cc(NC(=O)CNC(C)(C)C)c(O)c2c1C[C@H]1C[C@H]3[C@H](N(C)C)C(O)=C(C(N)=O)C(=O)[C@@]3(O)C(O)=C1C2=O [Tigecycline]
- samples with bacterial growth ([3]; 0.1 mg/mL): 93.3%
- Log10 CFUs ([3]; 0.1 mg/ml in hydrogel scaffold): 3.38 ^b
- samples with bacterial growth ([3]; 1 mg/mL): 33.3%
- Log10 CFUs ([3]; 1 mg/ml in hydrogel scaffold): 0.93 ^c

Structure (SMILES): Cc1ncc([N+](=O)[O-])n1CCO [metronidazole]
- inhibition zone ([1]; against any of tested microorganisms): no inhibition zone
